Experimental data taken from patent US9096576B2, “Compounds and methods for treatment of systemic lupus erythematosus” (The Feinstein Institute For Medical Research, priority 2010, dated 2015).
Entries after “also recorded” stand apart in the source; their conditions may differ.

What was measured:
[1] = tested on: R4A mouse autoantibody; experiment: competitive ELISA, R4A autoantibody binding to its antigens; conditions: in vitro; for inhibition of R4A binding to DWEYS peptide: antigen DWEYS peptide, FIG. 1B; for inhibition of R4A binding to dsDNA: antigen dsDNA, FIG. 1C
Source text: (§1) FIG. 1A-1E. Compound 12W inhibits antigen recognition by systemic lupus erythematosus (SLE) autoantibodies. A) Structures of Compound 12W and WEY peptide (i.e., a tripeptide identical to the pentapeptide DWEYS (SEQ ID NO:1) less the carboxyl serine residue and the amino terminal aspartate of the pentapeptide). B) R4A mouse autoantibody binding to DWEYS (SEQ ID NO:1) peptide. C) R4A mouse autoantibody binding to DNA. D) G11 human autoantibody binding to DWEYS (SEQ ID NO:1) peptide. E) G11 human autoantibody binding to DNA. In B)-E), antibody binding in the presence of DWEYS peptide is shown in the right plot in each figure. Compound 12W inhibits binding as shown by the left plot in each figure.

[2] = tested on: G11 human autoantibody; experiment: competitive ELISA, G11 autoantibody binding to its antigens
Source text: as §1

[3] = tested on: anti-BSA antibody; experiment: binding of an anti-BSA antibody to BSA (specificity control); conditions: data not shown
[4] = tested on: R4A antibody; experiment: R4A binding to mouse kidney glomeruli in situ; conditions: for inhibition of R4A binding to mouse kidney glomeruli: antibody pre-incubated, presence and absence of DNAse, FIG. 2A
Source text: FIG. 2A-2B. Compound 12W inhibits SLE autoantibody binding to glomeruli in situ. A) Data with R4A. B) Data with G11. From left to right: control, +DNAse, +Compound 12W, +DNAse+Compound 12W.
The kidney is a major target organ in SLE, with renal disease occurring in approximately 50% of patients. Glomerular deposition of circulating autoantibodies leads to a cascade of inflammatory events including renal infiltration by activated immune cells, activation of dendritic cells through Toll-like receptors and pro-inflammatory cytokine production (Bagavant and Fu 2009), which can culminate in end-stage renal disease. […] The R4A and G11 antibodies, as well as other pathogenic lupus antibodies, bind to both DNA and non-DNA antigens present in kidney glomeruli ex vivo. […] To test if Compound 12W could block the binding of the R4A antibody to its renal antigens in situ, the R4A antibody was incubated with mouse kidney glomeruli in the presence and absence of Compound 12W and its binding measured by detection with fluorescently-conjugated secondary antibodies.

[5] = tested on: R4A or G11 antibodies; experiment: neurotoxicity of intracerebrally injected lupus autoantibodies, TUNEL staining; type: in vivo, mice
Description: FIG. 3. Compound 12W inhibits neurotoxicity of autoantibodies. The lupus autoantibodies caused significant neuronal apoptosis, as indicated by positive TUNEL staining (right panels).
Both R4A and G11 cause excitotoxic death of neurons in the mouse hippocampus (Zhang et al. 2009). Therefore, the ability of Compound 12W to negate the neurotoxicity of these autoantibodies was assayed. To test the neuroprotective potential of Compound 12W, mice were injected intracerebrally with R4A or G11 antibodies in the presence and absence of Compound 12W. As shown previously, the lupus autoantibodies caused significant neuronal apoptosis, as indicated by positive TUNEL staining (FIG. 3, upper and lower right panels). […] The neuroprotective dose of Compound 12W was 2 logs less than that previously used to achieve similar neuroprotection with the DWEYS (SEQ ID NO:1) peptide (Huerta et al. 2006).

[6] = tested on: autoantibodies present in serum from multiple lupus patients; experiment: competitive ELISA, lupus patient sera binding to DWEYS peptide; parameters: species or system human; conditions: sera pre-incubated, FIG. 4
Description: FIG. 4. Compound 12W inhibits autoantibodies present in human SLE sera. Inhibition of human SLE sera binding to antigens in vitro.
(§2) The studies above tested the ability of Compound 12W to neutralize monoclonal antibodies derived from mouse or human lupus sera. It was next tested whether Compound 12W would be similarly effective in inhibiting the polyclonal autoreactivity present in lupus patient sera (FIG. 4). Sera from lupus patients were pre-incubated with the Compound 12W and binding to DWEYS (SEQ ID NO:1) and dsDNA was then assayed in a competitive ELISA. […] The ability of Compound 12W to inhibit binding of lupus sera to mouse kidney glomeruli was also assayed.

[7] = tested on: human lupus sera; experiment: binding of lupus sera to mouse kidney glomeruli; conditions: data not shown
Description: as §2

[8] = tested on: anti-dsDNA/NMDAR G11/R4A/human lupus antibody; experiment: glomerular deposition of anti-dsDNA/NMDAR antibody in vivo; parameters: species or system SCID mice
Description: In order to test if Compound 12W was also effective at protecting the kidney, a major target organ in lupus, from antibody deposition, the anti-dsDNA/NMDAR G11/R4A/human lupus antibody was administered to SCID mice in the absence and presence of Compound 12W and glomerular deposition was measured.

[9] = tested on: R4A antibody; conditions: literature; cited from earlier work
[10] = tested on: anti-dsDNA/NMDAR G11/R4A/human lupus antibody; conditions: mice; Gaynor et al. 1997, Huerta et al. 2006; cited from earlier work

Compound	inhibition of R4A binding to DWEYS peptide [1]	inhibition of R4A binding to dsDNA [1]	inhibition of G11 binding to DNA ([2]; antigen DNA, FIG. 1E)	inhibition of G11 binding to DWEYS peptide ([2]; antigen DWEYS peptide, FIG. 1D)	inhibition of binding of an anti-BSA antibody to BSA [3]	inhibition of R4A binding to mouse kidney glomeruli [4]	dose dependence of inhibition of R4A binding to glomeruli ([4]; data not shown)	neuroprotective dose relative to that previously used with the DWEYS peptide ([5]; less than DWEYS peptide dose (Huerta et al. 2006)) [logs]	neuronal apoptosis caused by lupus autoantibodies (TUNEL staining) ([5]; mice, intracerebral co-administration with R4A or G11, FIG. 3)	inhibition of lupus patient sera binding to DWEYS peptide [6]	inhibition of binding of human lupus sera to mouse kidney glomeruli [7]	autoantibody binding to renal tissue in vivo [8]	glomerular binding by R4A blocked (Gaynor et al 1997) [9]	renal (and brain) deposition of anti-DNA/NMDAR antibodies in vivo, literature [10]
CC(C)(C)NCC1CC2CCCCC2CN1CC(O)C(Cc1ccccc1)NCC(CCN)NCC1Nc2ccccc2CC1O (centres unmarked) [Compound 12W, 2-((4-amino-1-(4-(3-((tert-butylamino)methyl)octahydroisoquinolin-2(1H)-yl)-3-hydroxy-1-phenylbutan-2-ylamino)butan-2-ylamino)methyl)-1,2,3,4-tetrahydroquinolin-3-ol]	able to inhibit R4A binding to these same antigens at nM concentrations	able to inhibit R4A binding to these same antigens at nM concentrations	inhibited G11 binding at similar concentrations to its effect on R4A binding	inhibited G11 binding at similar concentrations to its effect on R4A binding	failed to inhibit binding	Dramatically less binding was observed to both DNA and non-DNA antigens	dependent on the dose	2	blocked the neurotoxic effects of the lupus antibodies	able to inhibit binding	blocked binding of human lupus sera to kidney antigens	blocked autoantibody binding to renal tissue both ex vivo and in vivo		
DWEYS peptide: pentapeptide DWEYS (SEQ ID NO:1), antigen/mimetope recognised by anti-dsDNA/NMDAR lupus autoantibodies (listed as Homo sapiens) [reference compound]	inhibitable by DWEYS (SEQ ID NO:1) peptide at mM concentrations	inhibitable by DWEYS (SEQ ID NO:1) peptide at mM concentrations				could be mimicked by pre-incubation of the R4A antibody with the DWEYS (SEQ ID NO:1) peptide at mM concentrations							can be blocked	blocks renal and brain deposition of anti-DNA/NMDAR antibodies in mice; also recorded: able to block binding of the anti-dsDNA antibodies to kidneys in vivo
